Patent publication US20230167093A1, “COMPOUNDS AND METHODS FOR MODULATING SPLICING” (REMIX THERAPEUTICS INC., priority 2020, published 2023)

Tests used:
Format in all cases: cell-based
HTT AJ mRNA = experiment: RT-qPCR splicing assay, HTT alternative junction (AJ) mRNA increase; conditions: A673 or K562 cells, 24 hours compound treatment, top dose 10 uM; concentration having 50% response in AJ increase
Protocol: (§1) Compounds described herein were used to modulate RNA transcript abundance in cells. The expression of a target mRNA was measured by detecting the formation of an exon-exon junction in the canonical transcript (CJ). A compound mediated exon-inclusion event was detected by observing an increase in formation of a new junction with an alternative exon (AJ). Real-time qPCR assays were used to detect these splicing switches and interrogate the potency of various compounds towards different target genes. A high-throughput real time quantitative PCR (RT-qPCR) assay was developed to measure these two isoforms of the mRNA (CJ and AJ) for an exemplary gene, HTT, together with a control housekeeping gene, GAPDH or GUSB or PPIA, used for normalization. Briefly, the A673 or K562 cell line was treated with various compounds described herein (e.g., compounds of Formula (I) or (II)). After treatment, the levels of the HTT mRNA targets were determined from each sample of cell lysate by cDNA synthesis followed by qPCR.
(§2) The A673 cell line was cultured in DMEM with 10% FBS. Cells were diluted with full growth media and plated in a 96-well plate (15,000 cells in 100 ul media per well). The plate was incubated at 37° C. with 5% CO2 for 24 hours to allow cells to adhere. An 11-point 3-fold serial dilution of the compounds was made in DMSO then diluted in media in an intermediate plate. Compounds were transferred from the intermediate plate to the cell plate with the top dose at a final concentration of 10 uM in the well. Final DMSO concentration was kept at or below 0.25%. The cell plate was returned to the incubator at 37° C. with 5% CO2 for an additional 24 hours.
(§3) The K562 cell line was cultured in IMDM with 10% FBS. For K562, cells were diluted with full growth media and plated in either a 96-well plate (50,000 cells in 50 uL media per well) or a 384-well plate (8,000-40,000 cells in 45 uL media per well). An 11-point 3-fold serial dilution of the compounds were made in DMSO then diluted in media in an intermediate plate. Compound was transferred from the intermediate plate to the cell plate with the top dose at a final concentration of 10 uM in the well. Final DMSO concentration was kept at or below 0.25%. Final volume was 100 uL for 96-well plate and 50 uL for 384-well plate. The cell plate was then placed in an incubator at 37° C. with 5% CO2 for 24 hours.
(§4) The cells were then gently washed with 50 uL-100 uL cold PBS before proceeding to addition of lysis buffer. 30 uL-50 uL of room temperature lysis buffer with DNAse I (and optionally RNAsin) was added to each well. Cells were shaken/mixed thoroughly at room temperature for 5-10 minutes for lysis to take place and then 3 uL-5 uL of room temperature stop solution was added and wells were shaken/mixed again. After 2-5 minutes, the cell lysate plate was transferred to ice for RT-qPCR reaction setup. The lysates could also be frozen at −80° C. for later use.
(§5) In some cases, a direct lysis buffer was used. An appropriate volume of 3× lysis buffer (10 mM Tris, 150 mM NaCl, 1.5%-2.5% Igepal and 0.1-1 U/uL RNAsin, pH 7.4) was directly added to either K562 or A673 cells in media and mixed by pipetting 3 times. The plates were then incubated at room temperature with shaking/rocking for 20-50 minutes to allow for lysis to take place. After this time, the cell lysate plate was transferred to ice to set up for the RT-qPCR reactions. The lysates could also be frozen at −80° C. for later use.
(§6) To set up 10 uL RT-qPCR reactions, cell lysates were transferred to 384-well qPCR plates containing the master mix according to the table below. The plates were sealed, gently vortexed, and spun down before the run. The volumes were adjusted accordingly in some instances where the reaction was carried in 20 uL. The table below summarizes the components of the RT-qPCR reactions:
(§7) The RT-qPCR reaction was performed using a QuantStudio (ThermoFisher) under the following fast cycling conditions. […]

HTT CJ mRNA [1] = experiment: RT-qPCR splicing assay, HTT canonical junction (CJ) mRNA decrease; conditions: A673 or K562 cells, 24 hours compound treatment, top dose 10 uM; concentration having 50% response in CJ decrease
Protocol: as §1, §2, §3, §4, §5, §6, §7

HTT CJ mRNA [2] = experiment: Gene panel canonical junction qPCR assay, HTT; conditions: protocol as above, concentration having 50% response in CJ decrease, read-out: HTT IC50 (decrease in CJ mRNA levels)
Protocol: as §1, §2, §3, §4, §5, §6, §7

SMN2 CJ mRNA = experiment: Gene panel canonical junction qPCR assay, SMN2; conditions: protocol as above, concentration having 50% response in CJ decrease, read-out: SMN2 IC50 (decrease in CJ mRNA levels)
Protocol: as §1, with “After treatment, the levels of the HTT mRNA targets were determined from each sample of cell lysate by cDNA synthesis followed by qPCR.” left out
as §2, §3, §4, §5, §6
The RT-qPCR reaction was performed using a QuantStudio (ThermoFisher) under the following fast cycling conditions. All samples and standards were analyzed at least in duplicate. […]

Target C CJ mRNA = experiment: Gene panel canonical junction qPCR assay, Target C; conditions: protocol as above, concentration having 50% response in CJ decrease, read-out: Target C IC50 (decrease in CJ mRNA levels)
Protocol: as §1, §2, §3, §4, §5, §6, §7

Cn1cc2cc(-n3cnc4ccc(C5=CCNCC5)cc4c3=O)ccc2n1 [Compound 151, 3-(2-methyl-2H-indazol-5-yl)-6-(1,2,3,6-tetrahydropyridin-4-yl)quinazolin-4(3H)-one]
AC50 (HTT AJ mRNA): > 10 µM | AC50 (HTT CJ mRNA [1]): > 10 µM | IC50 (HTT CJ mRNA [2]): > 10 µM | IC50 (SMN2 CJ mRNA): > 10 µM

CN1CCN(c2ccc3ncn(-c4ccc5nn(C)cc5c4)c(=O)c3c2)CC1 [Compound 154, 3-(2-methyl-2H-indazol-5-yl)-6-(4-methylpiperazin-1-yl)quinazolin-4(3H)-one]
AC50 (HTT AJ mRNA): > 10 µM | AC50 (HTT CJ mRNA [1]): > 10 µM | IC50 (HTT CJ mRNA [2]): > 10 µM | IC50 (SMN2 CJ mRNA): > 10 µM

Cn1cc2cc(-n3cnc4ccc(N5CCNCC5)cc4c3=O)ccc2n1 [Compound 155, 3-(2-methyl-2H-indazol-5-yl)-6-(piperazin-1-yl)quinazolin-4(3H)-one]
AC50 (HTT AJ mRNA): > 10 µM | AC50 (HTT CJ mRNA [1]): > 10 µM | IC50 (HTT CJ mRNA [2]): > 10 µM | IC50 (SMN2 CJ mRNA): > 10 µM

CN1[C@H]2CC[C@@H]1C=C(c1ccc3ncn(-c4ccc5nn(C)cc5c4)c(=O)c3c1)C2 [Compound 168, 3-(2-methyl-2H-indazol-5-yl)-6-((1R,5S)-8-methyl-8-azabicyclo[3.2.1]oct-2-en-3-yl)quinazolin-4(3H)-one]
AC50 (HTT AJ mRNA): > 10 µM | AC50 (HTT CJ mRNA [1]): > 10 µM | IC50 (HTT CJ mRNA [2]): > 10 µM | IC50 (SMN2 CJ mRNA): > 10 µM | IC50 (Target C CJ mRNA): > 10 µM

Cc1cc(-c2ccc3ncn(C4CCNCC4)c(=O)c3c2)cc2cn(C)nc12 [Compound 169, 6-(2,7-dimethyl-2H-indazol-5-yl)-3-(piperidin-4-yl)quinazolin-4(3H)-one]
AC50 (HTT AJ mRNA): > 10 µM | AC50 (HTT CJ mRNA [1]): > 10 µM | IC50 (HTT CJ mRNA [2]): > 10 µM | IC50 (SMN2 CJ mRNA): > 10 µM | IC50 (Target C CJ mRNA): > 10 µM

Cc1cc(-c2ccc3ncn(C4CCN(C)CC4)c(=O)c3c2)cc2cn(C)nc12 [Compound 170, 6-(2,7-dimethyl-2H-indazol-5-yl)-3-(1-methylpiperidin-4-yl)quinazolin-4(3H)-one]
AC50 (HTT AJ mRNA): > 10 µM | AC50 (HTT CJ mRNA [1]): > 10 µM | IC50 (HTT CJ mRNA [2]): > 10 µM | IC50 (SMN2 CJ mRNA): > 10 µM | IC50 (Target C CJ mRNA): > 10 µM

CN1CCC(Nc2ccc3ncn(-c4ccc5nn(C)cc5c4)c(=O)c3c2)CC1 [Compound 171, 3-(2-methyl-2H-indazol-5-yl)-6-((1-methylpiperidin-4-yl)amino)quinazolin-4(3H)-one]
AC50 (HTT AJ mRNA): > 10 µM | AC50 (HTT CJ mRNA [1]): > 10 µM | IC50 (HTT CJ mRNA [2]): > 10 µM | IC50 (SMN2 CJ mRNA): > 10 µM | IC50 (Target C CJ mRNA): > 10 µM

CN1CCN(c2ccc3ncn(-c4cc(F)c5nn(C)cc5c4)c(=O)c3c2)CC1 [Compound 194, 3-(7-fluoro-2-methyl-2H-indazol-5-yl)-6-(4-methylpiperazin-1-yl)quinazolin-4(3H)-one]
AC50 (HTT AJ mRNA): 1 to 10 µM | AC50 (HTT CJ mRNA [1]): 1 to 10 µM | IC50 (HTT CJ mRNA [2]): 1 to 10 µM | IC50 (SMN2 CJ mRNA): 1 to 10 µM | IC50 (Target C CJ mRNA): 1 to 10 µM

Cc1cn2cc(-n3cnc4ccc(N5CCNCC5)cc4c3=O)cc(F)c2n1 [Compound 195, 3-(8-fluoro-2-methylimidazo[1,2-a]pyridin-6-yl)-6-(piperazin-1-yl)quinazolin-4(3H)-one]
AC50 (HTT AJ mRNA): > 10 µM | AC50 (HTT CJ mRNA [1]): > 10 µM | IC50 (HTT CJ mRNA [2]): > 10 µM | IC50 (SMN2 CJ mRNA): > 10 µM | IC50 (Target C CJ mRNA): > 10 µM

Cn1cc2cc(-n3cnc4ccc(N5CCNCC5)cc4c3=O)cc(F)c2n1 [Compound 196, 3-(7-fluoro-2-methyl-2H-indazol-5-yl)-6-(piperazin-1-yl)quinazolin-4(3H)-one]
AC50 (HTT AJ mRNA): > 10 µM | AC50 (HTT CJ mRNA [1]): > 10 µM | IC50 (HTT CJ mRNA [2]): > 10 µM | IC50 (SMN2 CJ mRNA): > 10 µM | IC50 (Target C CJ mRNA): > 10 µM

Cc1cn2cc(-n3cnc4ccc(N5CCN(C)CC5)cc4c3=O)cc(F)c2n1 [Compound 197, 3-(8-fluoro-2-methylimidazo[1,2-a]pyridin-6-yl)-6-(4-methylpiperazin-1-yl)quinazolin-4(3H)-one]
AC50 (HTT AJ mRNA): 1 to 10 µM | AC50 (HTT CJ mRNA [1]): 1 to 10 µM | IC50 (HTT CJ mRNA [2]): 1 to 10 µM | IC50 (SMN2 CJ mRNA): 1 to 10 µM | IC50 (Target C CJ mRNA): 1 to 10 µM

CN(c1ccc2ncn(-c3cc(F)c4nn(C)cc4c3)c(=O)c2c1)C1CCNCC1 [Compound 198, 3-(7-fluoro-2-methyl-2H-indazol-5-yl)-6-(methyl(piperidin-4-yl)amino)quinazolin-4(3H)-one]
AC50 (HTT AJ mRNA): > 10 µM | AC50 (HTT CJ mRNA [1]): > 10 µM | IC50 (HTT CJ mRNA [2]): > 10 µM | IC50 (SMN2 CJ mRNA): > 10 µM | IC50 (Target C CJ mRNA): > 10 µM

CN1CCC(N(C)c2ccc3ncn(-c4cc(F)c5nn(C)cc5c4)c(=O)c3c2)CC1 [Compound 199, 3-(7-fluoro-2-methyl-2H-indazol-5-yl)-6-(methyl(1-methylpiperidin-4-yl)amino)quinazolin-4(3H)-one]
AC50 (HTT AJ mRNA): > 10 µM | AC50 (HTT CJ mRNA [1]): > 10 µM | IC50 (HTT CJ mRNA [2]): > 10 µM | IC50 (SMN2 CJ mRNA): > 10 µM | IC50 (Target C CJ mRNA): > 10 µM

Cc1cn2cc(-n3cnc4ccc(N(C)C5CCNCC5)cc4c3=O)cc(F)c2n1 [Compound 200, 3-(8-fluoro-2-methylimidazo[1,2-a]pyridin-6-yl)-6-(methyl(piperidin-4-yl)amino)quinazolin-4(3H)-one]
AC50 (HTT AJ mRNA): > 10 µM | AC50 (HTT CJ mRNA [1]): > 10 µM | IC50 (HTT CJ mRNA [2]): > 10 µM | IC50 (SMN2 CJ mRNA): > 10 µM | IC50 (Target C CJ mRNA): > 10 µM

Cc1cn2nc(-n3cnc4ccc(N5CCNCC5)cc4c3=O)cc(C)c2n1 [Compound 201, 3-(2,8-dimethylimidazo[1,2-b]pyridazin-6-yl)-6-(piperazin-1-yl)quinazolin-4(3H)-one]
AC50 (HTT AJ mRNA): > 10 µM | AC50 (HTT CJ mRNA [1]): > 10 µM | IC50 (HTT CJ mRNA [2]): > 10 µM | IC50 (SMN2 CJ mRNA): > 10 µM | IC50 (Target C CJ mRNA): > 10 µM

Cc1cn2nc(-n3cnc4ccc(N5CCN(C)CC5)cc4c3=O)cc(C)c2n1 [Compound 202, 3-(2,8-dimethylimidazo[1,2-b]pyridazin-6-yl)-6-(4-methylpiperazin-1-yl)quinazolin-4(3H)-one]
AC50 (HTT AJ mRNA): 1 to 10 µM | AC50 (HTT CJ mRNA [1]): 1 to 10 µM | IC50 (HTT CJ mRNA [2]): 1 to 10 µM | IC50 (SMN2 CJ mRNA): 1 to 10 µM | IC50 (Target C CJ mRNA): 1 to 10 µM

Cc1cc(-c2ccc3c(=O)[nH]c(N4CCNCC4)nc3c2)cc2cn(C)nc12 [Compound 211, 7-(2,7-dimethyl-2H-indazol-5-yl)-2-(piperazin-1-yl)quinazolin-4(3H)-one]
AC50 (HTT AJ mRNA): > 10 µM | AC50 (HTT CJ mRNA [1]): > 10 µM | IC50 (HTT CJ mRNA [2]): > 10 µM | IC50 (SMN2 CJ mRNA): > 10 µM | IC50 (Target C CJ mRNA): > 10 µM

Cc1cc(-c2ccc3c(=O)[nH]c(N4CCN(C)CC4)nc3c2)cc2cn(C)nc12 [Compound 212, 7-(2,7-dimethyl-2H-indazol-5-yl)-2-(4-methylpiperazin-1-yl)quinazolin-4(3H)-one]
AC50 (HTT AJ mRNA): 1 to 10 µM | AC50 (HTT CJ mRNA [1]): 1 to 10 µM | IC50 (HTT CJ mRNA [2]): 1 to 10 µM | IC50 (SMN2 CJ mRNA): 1 to 10 µM | IC50 (Target C CJ mRNA): 1 to 10 µM
